Reference: PMC6911684 (Bioorganic & medicinal chemistry letters, 2019)
One block for each compound: values may come before it.

How the values were obtained:
RPMI-8226 cells [1] = test: Cellular protein prenylation assays; format: cell-based, human
GGTase I = GGTase I (Homo sapiens, UniProt P49354+P53609); test: GGTase I in vitro enzyme assay; format: biochemical
FTase = FTase (Homo sapiens, UniProt P49354+P49356); test: FTase in vitro enzyme assay; format: biochemical
GGTase II [2] = biological target: T1, GGTase II (Homo sapiens, UniProt P53611+Q92696); test: GGTase II in vitro enzyme assay; format: biochemical
T1 sequence (Q92696 1-567): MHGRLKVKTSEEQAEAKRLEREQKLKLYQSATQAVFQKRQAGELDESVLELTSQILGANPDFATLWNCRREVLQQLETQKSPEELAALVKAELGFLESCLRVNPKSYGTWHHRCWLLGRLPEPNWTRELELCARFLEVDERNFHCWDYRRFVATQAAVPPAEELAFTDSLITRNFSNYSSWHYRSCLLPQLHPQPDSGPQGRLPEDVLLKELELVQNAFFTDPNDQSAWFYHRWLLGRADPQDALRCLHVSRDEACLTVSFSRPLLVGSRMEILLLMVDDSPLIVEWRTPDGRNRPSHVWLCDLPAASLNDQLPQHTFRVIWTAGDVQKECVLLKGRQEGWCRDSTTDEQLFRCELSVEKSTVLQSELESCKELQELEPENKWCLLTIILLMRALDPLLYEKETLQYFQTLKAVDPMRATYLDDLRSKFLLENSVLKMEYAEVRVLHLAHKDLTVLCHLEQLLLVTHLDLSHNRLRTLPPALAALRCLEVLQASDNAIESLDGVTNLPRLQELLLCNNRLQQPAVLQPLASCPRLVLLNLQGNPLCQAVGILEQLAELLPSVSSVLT
T1 sequence (P53611 1-331): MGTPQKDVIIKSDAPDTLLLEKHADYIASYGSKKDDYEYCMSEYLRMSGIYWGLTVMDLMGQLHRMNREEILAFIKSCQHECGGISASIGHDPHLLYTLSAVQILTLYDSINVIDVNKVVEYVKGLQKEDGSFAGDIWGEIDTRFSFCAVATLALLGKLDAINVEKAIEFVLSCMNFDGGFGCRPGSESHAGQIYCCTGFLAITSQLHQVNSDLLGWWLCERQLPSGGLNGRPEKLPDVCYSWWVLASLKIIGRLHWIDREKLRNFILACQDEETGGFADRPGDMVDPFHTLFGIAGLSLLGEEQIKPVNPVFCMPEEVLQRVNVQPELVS

myeloma cells = conditions: cited from earlier work
RPMI-8226 cells [3] = conditions: HMG-CoA reductase inhibitor, 10 μM in Figure 2; cited from earlier work
FDPS = biological target: T2, FDPS (Homo sapiens, UniProt P14324); test: FDPS in vitro enzyme assay; format: biochemical; conditions: ratio of GGDPS and FDPS IC50
T2 sequence (P14324 1-419): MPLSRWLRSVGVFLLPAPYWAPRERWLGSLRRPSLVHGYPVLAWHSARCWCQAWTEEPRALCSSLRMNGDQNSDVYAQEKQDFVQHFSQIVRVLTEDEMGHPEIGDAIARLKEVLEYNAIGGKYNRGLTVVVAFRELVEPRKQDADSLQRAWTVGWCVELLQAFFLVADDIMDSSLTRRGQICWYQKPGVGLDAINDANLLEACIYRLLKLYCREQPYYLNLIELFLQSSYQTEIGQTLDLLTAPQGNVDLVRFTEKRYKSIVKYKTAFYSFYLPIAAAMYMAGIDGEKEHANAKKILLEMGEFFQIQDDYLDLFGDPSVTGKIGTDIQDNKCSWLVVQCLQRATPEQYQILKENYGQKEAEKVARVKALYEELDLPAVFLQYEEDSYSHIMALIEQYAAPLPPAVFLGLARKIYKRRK

GGTase II [4] = biological target: T1, GGTase II; conditions: cited from earlier work
[5] = RPMI-8226 cells, 48 hours, immunoblot

SMILES: O=P(O)(O)C(Cn1cnc2cc(F)c(F)cc21)P(=O)(O)O [Compound 19]
Concentration for cellular activity relative to parent compound 17 (RPMI-8226 cells [1]; higher concentration than compound 17): 20 fold

IC50 (GGTase I): > 1 mM
IC50 (FTase): > 1 mM
SMILES: CC(Cn1cnc2ccccc21)(C(=O)O)P(=O)(O)O (centres unmarked) [Compound 14]

IC50 (GGTase I): > 1 mM
IC50 (FTase): > 1 mM
SMILES: Cc1cc2ncn(CC(P(=O)(O)O)P(=O)(O)O)c2cc1C [Compound 20]
Impairment of protein prenylation in cells (RPMI-8226 cells [1]; RPMI-8226 cells, 48 hours): no detectable impairment of protein prenylation

IC50 (GGTase II [2]): > 1 mM
IC50 (GGTase I): > 1 mM
IC50 (FTase): > 1 mM
SMILES: Cc1cc2ncn(CC(C(=O)O)P(=O)(O)O)c2cc1C (centres unmarked) [Compound 16]

SMILES: O=C(O)C(O)(Cc1cccnc1)P(=O)(O)O (centres unmarked) [Compound 3-PEHPC]
Concentration required to yield cellular effects (myeloma cells): > 5 mM

IC50 (GGTase I): > 1 mM
SMILES: O=C(O)C(Cn1cnc2ccccc21)P(=O)(O)O (centres unmarked) [Compound 13]
Intracellular light chain levels (RPMI-8226 cells [1]; RPMI-8226 cells, 48 hours, ELISA): increase
Membrane-bound Rab6 levels (RPMI-8226 cells [1]; RPMI-8226 cells, 48 hours, detergent fraction, immunoblot): decrease
Disruption of H-Ras prenylation (representative farnesylated protein) (RPMI-8226 cells [1]; [5]): did not cause disruption
Disruption of Rap1a prenylation (representative substrate for GGTase I) (RPMI-8226 cells [1]; [5]): did not cause disruption

IC50 (GGTase II [2]): > 1 mM
IC50 (GGTase I): > 1 mM
SMILES: O=P(O)(O)C(Cn1cnc2ccccc21)P(=O)(O)O [Compound 17]
Impairment of protein prenylation in cells (RPMI-8226 cells [1]; RPMI-8226 cells, 48 hours): globally disrupts protein prenylation
Impairment of protein prenylation in combination with lovastatin (RPMI-8226 cells [1]; co-incubation with lovastatin 0.5 μM, RPMI-8226 cells, 48 hours): enhanced the impairment of protein prenylation

SMILES: CC[C@H](C)C(=O)O[C@H]1C[C@@H](C)C=C2C=C[C@H](C)[C@H](CC[C@@H]3C[C@@H](O)CC(=O)O3)[C@H]21 [Lovastatin, reference compound]
Impairment of protein prenylation in cells (RPMI-8226 cells [1]; lovastatin alone at 0.5 μM, RPMI-8226 cells, 48 hours): only minimally impairs protein prenylation
Disruption of prenylation (positive control) (RPMI-8226 cells [3]): disrupts all prenylation

IC50 (GGTase II [2]): > 1 mM
IC50 (GGTase I): > 1 mM
IC50 (FTase): > 1 mM
Selectivity for FDPS relative to GGDPS (FDPS): >100
SMILES: CC(Cn1cnc2ccccc21)(P(=O)(O)O)P(=O)(O)O [Compound 18]
Impairment of protein prenylation in cells (RPMI-8226 cells [1]; RPMI-8226 cells, 48 hours): no detectable impairment of protein prenylation

SMILES: O=C(O)C(O)(Cc1cnc2ccccn12)P(=O)(O)O (centres unmarked) [Compound 3-IPEHPC]
Potency as GGTase II inhibitor relative to 3-PEHPC (GGTase II [4]; more potent than 3-PEHPC): 25 fold

IC50 (GGTase II [2]): > 1 mM
SMILES: O=C(O)C(Cn1cnc2cc(F)c(F)cc21)P(=O)(O)O (centres unmarked) [Compound 15]

SMILES: O=C(O)C(O)(Cc1cnc2ccccn12)P(=O)(O)O (single isomer, unassigned; (+)) [(+)-enantiomer of 3-IPEHPC]
Activity relative to the (−)-enantiomer (GGTase II [4]; more active than (−)-enantiomer): ~ 60 fold
